Results published in US20100144733A1, “Compounds, compositions and methods comprising heteroaromatic derivatives” (Institute for OneWorld Health, priority 2008, published 2010).

Experiments:
[1] = target: T1, CFTR (Homo sapiens, UniProt P13569); assay: T84 assay (FLIPR membrane potential dye, forskolin/IBMX-stimulated CFTR channel activity); type: cell-based; details: imidazole and triazole-containing compounds (Tables 13, 14, 14′), read-out: IC50 (μM) (T84 assay)
T1 construct: endogenous in cells; host or cells: T84 human colonic cells (ECACC)
T1 sequence (P13569 whole entry): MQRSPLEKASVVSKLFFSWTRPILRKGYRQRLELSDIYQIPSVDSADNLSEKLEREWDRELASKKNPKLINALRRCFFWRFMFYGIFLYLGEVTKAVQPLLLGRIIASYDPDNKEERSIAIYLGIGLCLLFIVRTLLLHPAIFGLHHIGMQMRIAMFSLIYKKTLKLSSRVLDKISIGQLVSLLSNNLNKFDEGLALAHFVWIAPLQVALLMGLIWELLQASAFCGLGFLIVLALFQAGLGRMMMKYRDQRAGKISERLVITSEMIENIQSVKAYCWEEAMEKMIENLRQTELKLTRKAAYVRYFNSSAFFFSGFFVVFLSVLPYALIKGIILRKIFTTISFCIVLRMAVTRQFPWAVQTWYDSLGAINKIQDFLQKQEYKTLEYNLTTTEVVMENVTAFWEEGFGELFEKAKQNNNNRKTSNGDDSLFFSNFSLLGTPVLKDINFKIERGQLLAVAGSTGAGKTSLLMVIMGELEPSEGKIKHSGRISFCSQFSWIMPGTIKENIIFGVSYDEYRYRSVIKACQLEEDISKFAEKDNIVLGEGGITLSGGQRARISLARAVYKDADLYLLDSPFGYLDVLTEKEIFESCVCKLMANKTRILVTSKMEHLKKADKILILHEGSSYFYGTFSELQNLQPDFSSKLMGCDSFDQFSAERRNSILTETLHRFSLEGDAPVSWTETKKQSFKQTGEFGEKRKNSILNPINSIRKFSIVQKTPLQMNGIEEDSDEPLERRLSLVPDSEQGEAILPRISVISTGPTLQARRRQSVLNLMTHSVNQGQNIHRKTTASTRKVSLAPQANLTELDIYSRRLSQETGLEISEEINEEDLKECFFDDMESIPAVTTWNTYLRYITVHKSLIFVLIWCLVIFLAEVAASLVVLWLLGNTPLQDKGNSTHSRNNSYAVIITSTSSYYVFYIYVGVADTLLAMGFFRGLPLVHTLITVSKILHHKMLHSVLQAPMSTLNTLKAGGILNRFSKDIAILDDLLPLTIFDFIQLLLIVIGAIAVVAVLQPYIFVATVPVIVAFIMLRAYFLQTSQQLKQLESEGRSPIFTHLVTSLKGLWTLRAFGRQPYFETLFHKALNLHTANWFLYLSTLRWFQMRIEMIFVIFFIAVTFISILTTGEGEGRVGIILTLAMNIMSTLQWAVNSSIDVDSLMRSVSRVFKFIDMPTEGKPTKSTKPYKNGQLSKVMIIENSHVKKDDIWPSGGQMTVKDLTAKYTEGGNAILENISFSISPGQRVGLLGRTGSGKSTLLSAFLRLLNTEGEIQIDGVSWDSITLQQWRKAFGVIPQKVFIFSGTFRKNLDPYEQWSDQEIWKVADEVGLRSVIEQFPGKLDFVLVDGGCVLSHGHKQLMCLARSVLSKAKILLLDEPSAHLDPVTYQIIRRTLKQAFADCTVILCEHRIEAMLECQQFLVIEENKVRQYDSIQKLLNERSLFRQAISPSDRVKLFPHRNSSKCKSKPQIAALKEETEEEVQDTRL
Outline: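 Fluorescence from a membrane potential dye in T84 monolayers (HBSS with 10 mM Hepes) is followed each second for 150 s. Cells are exposed to test compound during the 45 min dye loading, then challenged with forskolin (10 μM) and IBMX (100 μM) to open CFTR. Inhibitors suppress the depolarization-driven fluorescence increase.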

[2] = target: T2, CHO-CFTR cell line (Homo sapiens, UniProt P13569); assay: CHO-CFTR assay (FLIPR assay, same conditions as the T84 assay); type: cell-based; details: imidazole and triazole-containing compounds
T2 construct: expressed in transfected cells; host or cells: CHO (CHO-CFTR cell line)
T2 sequence (P13569 whole entry): as above

| SMILES | IC50 [1] [µM] | IC50 [2] [µM] |
| --- | --- | --- |
| O=C(c1ncn(-c2cc(Cl)c(O)c(Cl)c2)n1)N(Cc1ccccc1)Cc1cccnc1 [75i, N-benzyl-1-(3,5-dichloro-4-hydroxyphenyl)-N-(pyridin-3-ylmethyl)-1H-1,2,4-triazole-3-carboxamide] | 15.6 | 40.1 |
| O=C(NCc1ccc(Oc2ccc(CO)cc2)cc1)c1ncn(-c2cc(Cl)c(O)c(Cl)c2)n1 [76i, 1-(3,5-dichloro-4-hydroxyphenyl)-N-(4-(4-(hydroxymethyl)phenoxy)benzyl)-1H-1,2,4-triazole-3-carboxamide] | 11.3 | 12.2 |
| CC(C)(C)CCN(Cc1cccnc1)C(=O)c1ncn(-c2cc(Cl)c(O)c(Cl)c2)n1 [78i, 1-(3,5-dichloro-4-hydroxyphenyl)-N-(3,3-dimethylbutyl)-N-(pyridin-3-ylmethyl)-1H-1,2,4-triazole-3-carboxamide] | 11.4 | 13.7 |
| O=C(c1ncn(-c2cc(Cl)c(O)c(Cl)c2)n1)N(Cc1ccccc1)Cc1ccc(Oc2ccccc2)cc1 [80i, N-benzyl-1-(3,5-dichloro-4-hydroxyphenyl)-N-(4-phenoxybenzyl)-1H-1,2,4-triazole-3-carboxamide] | 4.4 | 13.3 |
| CC(C)c1ccc(CN(Cc2ccccc2)C(=O)c2ncn(-c3cc(Cl)c(O)c(Cl)c3)n2)cc1 [81i, N-benzyl-1-(3,5-dichloro-4-hydroxyphenyl)-N-(4-isopropylbenzyl)-1H-1,2,4-triazole-3-carboxamide] | 1.26 | 16.5 |
| CC(C)(C)c1ccc(CN(Cc2ccccc2)C(=O)c2ncn(-c3cc(Cl)c(O)c(Cl)c3)n2)cc1 [82i, N-benzyl-N-(4-tert-butylbenzyl)-1-(3,5-dichloro-4-hydroxyphenyl)-1H-1,2,4-triazole-3-carboxamide] | 1.6 | 19.7 |
| O=C(c1ncn(-c2cc(Cl)c(O)c(Cl)c2)n1)N(Cc1ccccc1)Cc1ccc(Cl)c(Cl)c1 [83i, N-benzyl-1-(3,5-dichloro-4-hydroxyphenyl)-N-(3,4-dichlorobenzyl)-1H-1,2,4-triazole-3-carboxamide] | 3.22 | 14.3 |
| CCN(Cc1ccc(Oc2ccccc2)cc1)C(=O)c1ncn(-c2cc(Cl)c(O)c(Cl)c2)n1 [86i, 1-(3,5-dichloro-4-hydroxyphenyl)-N-ethyl-N-(4-phenoxybenzyl)-1H-1,2,4-triazole-3-carboxamide] | 1.81 | 28.9 |
| CCN(Cc1ccc(C(C)C)cc1)C(=O)c1ncn(-c2cc(Cl)c(O)c(Cl)c2)n1 [87i, 1-(3,5-dichloro-4-hydroxyphenyl)-N-ethyl-N-(4-isopropylbenzyl)-1H-1,2,4-triazole-3-carboxamide] | 1.23 | 20.6 |
| CCN(Cc1ccc(C(C)(C)C)cc1)C(=O)c1ncn(-c2cc(Cl)c(O)c(Cl)c2)n1 [88i, N-(4-tert-butylbenzyl)-1-(3,5-dichloro-4-hydroxyphenyl)-N-ethyl-1H-1,2,4-triazole-3-carboxamide] | 0.75 | 6.58 |
| CCN(Cc1cccc(OC(F)(F)F)c1)C(=O)c1ncn(-c2cc(Cl)c(O)c(Cl)c2)n1 [89i, 1-(3,5-dichloro-4-hydroxyphenyl)-N-ethyl-N-(3-(trifluoromethoxy)benzyl)-1H-1,2,4-triazole-3-carboxamide] | 3.34 | 24.6 |
| CCN(Cc1cccc(C(F)(F)F)c1)C(=O)c1ncn(-c2cc(Cl)c(O)c(Cl)c2)n1 [90i, 1-(3,5-dichloro-4-hydroxyphenyl)-N-ethyl-N-(3-(trifluoromethyl)benzyl)-1H-1,2,4-triazole-3-carboxamide] | 5.98 | 15.9 |
| O=C(c1ncn(-c2cc(Cl)c(O)c(Cl)c2)n1)N(Cc1ccc(Oc2ccccc2)cc1)Cc1cccnc1 [91i, 1-(3,5-dichloro-4-hydroxyphenyl)-N-(4-phenoxybenzyl)-N-(pyridin-3-ylmethyl)-1H-1,2,4-triazole-3-carboxamide] | 2.89 | 20.6 |
| CC(C)c1ccc(CN(Cc2cccnc2)C(=O)c2ncn(-c3cc(Cl)c(O)c(Cl)c3)n2)cc1 [92i, 1-(3,5-dichloro-4-hydroxyphenyl)-N-(4-isopropylbenzyl)-N-(pyridin-3-ylmethyl)-1H-1,2,4-triazole-3-carboxamide] | 1.47 | 8.57 |
| CC(C)(C)c1ccc(CN(Cc2cccnc2)C(=O)c2ncn(-c3cc(Cl)c(O)c(Cl)c3)n2)cc1 [93i, N-(4-tert-butylbenzyl)-1-(3,5-dichloro-4-hydroxyphenyl)-N-(pyridin-3-ylmethyl)-1H-1,2,4-triazole-3-carboxamide] | 1.19 | 4.67 |
| O=C(c1ncn(-c2cc(Cl)c(O)c(Cl)c2)n1)N(Cc1cccnc1)Cc1cccc(C(F)(F)F)c1 [94i, 1-(3,5-dichloro-4-hydroxyphenyl)-N-(pyridin-3-ylmethyl)-N-(3-(trifluoromethyl)benzyl)-1H-1,2,4-triazole-3-carboxamide] | 6.95 | 21.1 |

| SMILES | IC50 [1] [µM] | IC50 [2] [µM] |
| --- | --- | --- |
| CC(C)N(Cc1ccc(Oc2ccccc2)cc1)C(=O)c1ncn(-c2cc(Cl)c(O)c(Cl)c2)n1 [95i, 1-(3,5-dichloro-4-hydroxyphenyl)-N-isopropyl-N-(4-phenoxybenzyl)-1H-1,2,4-triazole-3-carboxamide] | 2.63 | 18.9 |
| CC(C)c1ccc(CN(C(=O)c2ncn(-c3cc(Cl)c(O)c(Cl)c3)n2)C(C)C)cc1 [96i, 1-(3,5-dichloro-4-hydroxyphenyl)-N-isopropyl-N-(4-isopropylbenzyl)-1H-1,2,4-triazole-3-carboxamide] | 2.53 | 22.1 |
| CC(C)N(Cc1ccc(C(C)(C)C)cc1)C(=O)c1ncn(-c2cc(Cl)c(O)c(Cl)c2)n1 [97i] | 1.23 | 35.5 |
| CC(C)N(Cc1ccc(Cl)c(Cl)c1)C(=O)c1ncn(-c2cc(Cl)c(O)c(Cl)c2)n1 [98i, 1-(3,5-dichloro-4-hydroxyphenyl)-N-(3,4-dichlorobenzyl)-N-isopropyl-1H-1,2,4-triazole-3-carboxamide] | 8.13 | 8.39 |
| CC(C)N(Cc1cccc(OC(F)(F)F)c1)C(=O)c1ncn(-c2cc(Cl)c(O)c(Cl)c2)n1 [99i, 1-(3,5-dichloro-4-hydroxyphenyl)-N-isopropyl-N-(3-(trifluoromethoxy)benzyl)-1H-1,2,4-triazole-3-carboxamide] | 7.93 | 12 |
| C=CCN(Cc1ccc(Oc2ccccc2)cc1)C(=O)c1ncn(-c2cc(Cl)c(O)c(Cl)c2)n1 [100i, N-allyl-1-(3,5-dichloro-4-hydroxyphenyl)-N-(4-phenoxybenzyl)-1H-1,2,4-triazole-3-carboxamide] | 1.85 | 9.09 |
| C=CCN(Cc1ccc(Cl)c(Cl)c1)C(=O)c1ncn(-c2cc(Cl)c(O)c(Cl)c2)n1 [102i, N-allyl-1-(3,5-dichloro-4-hydroxyphenyl)-N-(3,4-dichlorobenzyl)-1H-1,2,4-triazole-3-carboxamide] | 1.85 | 2.69 |
| C=CCN(Cc1cccc(OC(F)(F)F)c1)C(=O)c1ncn(-c2cc(Cl)c(O)c(Cl)c2)n1 [103i, N-allyl-1-(3,5-dichloro-4-hydroxyphenyl)-N-(3-(trifluoromethoxy)benzyl)-1H-1,2,4-triazole-3-carboxamide] | 2.53 | 32.9 |
| C=CCN(Cc1cccc(C(F)(F)F)c1)C(=O)c1ncn(-c2cc(Cl)c(O)c(Cl)c2)n1 [104i, N-allyl-1-(3,5-dichloro-4-hydroxyphenyl)-N-(3-(trifluoromethyl)benzyl)-1H-1,2,4-triazole-3-carboxamide] | 5.83 | 41.9 |
| CC(C)(C)CCN(Cc1ccc(Oc2ccccc2)cc1)C(=O)c1ncn(-c2cc(Cl)c(O)c(Cl)c2)n1 [105i, 1-(3,5-dichloro-4-hydroxyphenyl)-N-(3,3-dimethylbutyl)-N-(4-phenoxybenzyl)-1H-1,2,4-triazole-3-carboxamide] | 3.64 | 11.3 |
| CC(C)(C)CCN(Cc1ccc(C(C)(C)C)cc1)C(=O)c1ncn(-c2cc(Cl)c(O)c(Cl)c2)n1 [106i, N-(4-tert-butylbenzyl)-1-(3,5-dichloro-4-hydroxyphenyl)-N-(3,3-dimethylbutyl)-1H-1,2,4-triazole-3-carboxamide] | 1.8 | 13.1 |
| CC(C)(C)CCN(Cc1ccc(Cl)c(Cl)c1)C(=O)c1ncn(-c2cc(Cl)c(O)c(Cl)c2)n1 [107i, 1-(3,5-dichloro-4-hydroxyphenyl)-N-(3,4-dichlorobenzyl)-N-(3,3-dimethylbutyl)-1H-1,2,4-triazole-3-carboxamide] | 1.73 | 26.9 |
| CCN(Cc1ccc(Cl)c(Cl)c1)C(=O)c1ncn(-c2cc(Cl)c(O)c(Cl)c2)n1 [108i, 1-(3,5-dichloro-4-hydroxyphenyl)-N-(3,4-dichlorobenzyl)-N-ethyl-1H-1,2,4-triazole-3-carboxamide] | 2.99 | 4.08 |
| O=C(c1ncn(-c2cc(Cl)c(O)c(Cl)c2)n1)N(Cc1cccnc1)Cc1ccc(Cl)c(Cl)c1 [109i, 1-(3,5-dichloro-4-hydroxyphenyl)-N-(3,4-dichlorobenzyl)-N-(pyridin-3-ylmethyl)-1H-1,2,4-triazole-3-carboxamide] | 3.06 | 10.2 |
| O=C(c1ncn(-c2cc(Cl)c(O)c(Cl)c2)n1)N(Cc1cccnc1)Cc1cccc(OC(F)(F)F)c1 [110i, 1-(3,5-dichloro-4-hydroxyphenyl)-N-(pyridin-3-ylmethyl)-N-(3-(trifluoromethoxy)benzyl)-1H-1,2,4-triazole-3-carboxamide] | 4.48 | 7.8 |
| COCCOCCOCCOCCN(Cc1ccc(Oc2ccccc2)cc1)C(=O)c1ncn(-c2cc(Cl)c(O)c(Cl)c2)n1 [112i, 1-(3,5-dichloro-4-hydroxyphenyl)-N-(4-phenoxybenzyl)-N-(2,5,8,11-tetraoxatridecan-13-yl)-1H-1,2,4-triazole-3-carboxamide] | 12.5 | 26.1 |
